Experimental data: US20260327214A1, “1,3,4-OXADIAZOLE DERIVATIVE COMPOUNDS AS HISTONE DEACETYLASE 6 INHIBITOR, AND USES THEREOF” (CHONG KUN DANG PHARMACEUTICAL CORP., priority 2022, published 2026)

Tests used:
human recombinant HDAC1 = target: T1, human recombinant HDAC1 (Homo sapiens, UniProt Q13547); assay: HDAC1 enzyme activity inhibition test (HDAC Fluorometric Drug Discovery Kit); type: biochemical; settings: 30° C., 60 minutes, 10 μM substrate
T1 construct: purchased Enzo Life Science BML-SE456
Procedure, shortened: (§1)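 IC50 derived from fluorescence (Ex 360, Em 460) following 30 min development with Developer II. Each reaction held 0.3 μg human recombinant HDAC1 or HDAC6, 10 μM Fluor de Lys SIRT1 substrate and 5-fold serially diluted compound, incubated 60 min at 30 °C.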

human recombinant HDAC6 = target: T2, human recombinant HDAC6 (Homo sapiens, UniProt Q9UBN7); assay: HDAC6 enzyme activity inhibition test (HDAC Fluorometric Drug Discovery Kit); type: biochemical; settings: for HDAC6 selectivity (fold): HDAC6 over HDAC1; for IC50: human recombinant HDAC6, same protocol as HDAC1
T2 construct: purchased Calbiochem 382180
T2 sequence (Q9UBN7 1-1215): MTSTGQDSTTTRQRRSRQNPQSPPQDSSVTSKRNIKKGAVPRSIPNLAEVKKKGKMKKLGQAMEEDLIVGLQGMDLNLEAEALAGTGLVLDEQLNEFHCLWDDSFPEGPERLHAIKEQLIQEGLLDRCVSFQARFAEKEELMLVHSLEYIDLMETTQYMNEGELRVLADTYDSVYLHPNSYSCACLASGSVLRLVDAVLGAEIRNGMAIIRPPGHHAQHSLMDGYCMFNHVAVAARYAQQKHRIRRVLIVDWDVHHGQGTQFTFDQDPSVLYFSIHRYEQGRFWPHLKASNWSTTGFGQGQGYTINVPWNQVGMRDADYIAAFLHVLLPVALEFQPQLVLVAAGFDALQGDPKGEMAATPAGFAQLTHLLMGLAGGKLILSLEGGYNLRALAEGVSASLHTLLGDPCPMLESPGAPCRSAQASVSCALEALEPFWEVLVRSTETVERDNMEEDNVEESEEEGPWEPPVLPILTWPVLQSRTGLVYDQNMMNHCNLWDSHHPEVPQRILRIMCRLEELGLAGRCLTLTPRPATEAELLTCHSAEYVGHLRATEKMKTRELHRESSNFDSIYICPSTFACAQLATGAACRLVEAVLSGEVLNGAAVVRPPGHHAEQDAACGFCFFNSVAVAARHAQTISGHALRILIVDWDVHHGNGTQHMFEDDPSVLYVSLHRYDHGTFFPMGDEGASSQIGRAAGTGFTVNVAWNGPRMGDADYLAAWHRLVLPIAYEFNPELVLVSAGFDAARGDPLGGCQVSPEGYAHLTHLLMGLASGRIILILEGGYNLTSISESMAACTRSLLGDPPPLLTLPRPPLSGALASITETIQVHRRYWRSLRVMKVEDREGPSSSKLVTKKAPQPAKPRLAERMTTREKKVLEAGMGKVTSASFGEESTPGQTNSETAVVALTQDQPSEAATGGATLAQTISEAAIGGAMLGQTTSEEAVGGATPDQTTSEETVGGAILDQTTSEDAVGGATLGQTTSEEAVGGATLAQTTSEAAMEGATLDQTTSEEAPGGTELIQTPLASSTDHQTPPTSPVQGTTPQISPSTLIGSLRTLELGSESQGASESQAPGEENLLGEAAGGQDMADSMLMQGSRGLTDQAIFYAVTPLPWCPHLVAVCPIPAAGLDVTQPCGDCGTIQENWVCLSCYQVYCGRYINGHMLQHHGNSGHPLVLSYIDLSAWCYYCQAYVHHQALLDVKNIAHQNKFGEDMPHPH
Procedure, shortened: as §1

T1 sequence (Q13547 whole entry): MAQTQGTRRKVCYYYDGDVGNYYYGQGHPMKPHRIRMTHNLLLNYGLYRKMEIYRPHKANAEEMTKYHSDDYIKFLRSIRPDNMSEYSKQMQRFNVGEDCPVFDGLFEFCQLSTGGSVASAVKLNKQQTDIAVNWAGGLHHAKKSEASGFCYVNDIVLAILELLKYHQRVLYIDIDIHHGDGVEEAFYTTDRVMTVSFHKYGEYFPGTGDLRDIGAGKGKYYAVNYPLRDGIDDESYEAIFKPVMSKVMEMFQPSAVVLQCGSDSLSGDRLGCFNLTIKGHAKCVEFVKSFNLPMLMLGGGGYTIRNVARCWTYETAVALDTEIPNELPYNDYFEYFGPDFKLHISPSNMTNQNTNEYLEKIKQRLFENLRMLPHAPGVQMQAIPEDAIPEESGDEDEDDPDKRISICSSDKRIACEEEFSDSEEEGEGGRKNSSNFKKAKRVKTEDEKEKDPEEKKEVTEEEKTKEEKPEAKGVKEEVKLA

Compound	IC50 (human recombinant HDAC1) [nM]	HDAC6 selectivity (fold) (human recombinant HDAC6)	IC50 (human recombinant HDAC6) [nM]
Cc1nc(-c2nn(Cc3ncc(-c4nnc(C(F)F)o4)cc3F)c(=S)o2)cs1 [Compound 60, 3-[[5-[5-(difluoromethyl)-1,3,4-oxadiazol-2-yl]-3-fluoro-2-pyridyl]methyl]-5-(2-methylthiazol-4-yl)-1,3,4-oxadiazol-2-thione]	> 50000	614	81.4
Cc1ncc(-c2nn(Cc3ncc(-c4nnc(C(F)F)o4)cc3F)c(=S)o2)s1 [Compound 61, 3-[[5-[5-(difluoromethyl)-1,3,4-oxadiazol-2-yl]-3-fluoro-2-pyridyl]methyl]-5-(2-methylthiazol-5-yl)-1,3,4-oxadiazol-2-thione]	> 50000	540	92.6
Fc1cc(-c2nnc(C(F)F)o2)cnc1Cn1nc(-c2cccnc2)oc1=S [Compound 62, 3-[[5-[5-(difluoromethyl)-1,3,4-oxadiazol-2-yl]-3-fluoro-2-pyridyl]methyl]-5-(3-pyridyl)-1,3,4-oxadiazol-2-thione]	> 50000	500	100
CC(C)N1CCN(Cc2cccc(-c3nn(Cc4ccc(-c5nnc(C(F)F)o5)cn4)c(=O)s3)c2)CC1 [Compound 63, 3-[[5-[5-(difluoromethyl)-1,3,4-oxadiazol-2-yl]-2-pyridyl]methyl]-5-[3-[(4-isopropylpiperazin-1-yl)methyl]phenyl]-1,3,4-thiadiazol-2-one]	> 50000	620	80.7
O=c1sc(-c2cccc(CN3CCN(C4CCC4)CC3)c2)nn1Cc1ccc(-c2nnc(C(F)F)o2)cn1 [Compound 64, 5-[3-[(4-cyclobutylpiperazin-1-yl)methyl]phenyl]-3-[[5-[5-(difluoromethyl)-1,3,4-oxadiazol-2-yl]-2-pyridyl]methyl]-1,3,4-thiadiazol-2-one]	> 50000	418	120
O=c1sc(-c2cccc(CN3CCN(C4CS(=O)(=O)C4)CC3)c2)nn1Cc1ccc(-c2nnc(C(F)F)o2)cn1 [Compound 65, 3-[[5-[5-(difluoromethyl)-1,3,4-oxadiazol-2-yl]-2-pyridyl]methyl]-5-[3-[[4-(1,1-dioxothietan-3-yl)piperazin-1-yl]methyl]phenyl]-1,3,4-thiadiazol-2-one]	> 50000	537	93.1
CC(C)N1CCN(Cc2ccc(-c3nn(Cc4ccc(-c5nnc(C(F)F)o5)cn4)c(=O)s3)cc2)CC1 [Compound 66]	> 50000	1497	33.4
O=c1sc(-c2ccc(CN3CCN(C4CCC4)CC3)cc2)nn1Cc1ccc(-c2nnc(C(F)F)o2)cn1 [Compound 67]	> 50000	890	56.2

Next, values leading:

IC50 (human recombinant HDAC1) [nM]	HDAC6 selectivity (fold) (human recombinant HDAC6)	IC50 (human recombinant HDAC6) [nM]	Compound
> 50000	473	106	O=c1sc(-c2ccc(CN3CCN(C4CS(=O)(=O)C4)CC3)cc2)nn1Cc1ccc(-c2nnc(C(F)F)o2)cn1 [Compound 68]
> 50000	434	115	O=C1OCC(c2cccs2)=NN1Cc1ccc(-c2nnc(C(F)F)o2)cn1 [Compound 69, 3-[[5-[5-(difluoromethyl)-1,3,4-oxadiazol-2-yl]-2-pyridyl]methyl]-5-(2-thienyl)-6H-1,3,4-oxadiazin-2-one]
> 50000	460	109	O=C1OCC(c2cccs2)=NN1Cc1ncc(-c2nnc(C(F)F)o2)cc1F [Compound 70, 3-[[5-[5-(difluoromethyl)-1,3,4-oxadiazol-2-yl]-3-fluoro-2-pyridyl]methyl]-5-(2-thienyl)-6H-1,3,4-oxadiazin-2-one]
> 50000	510	98	O=C1OCC(c2ccccc2)=NN1Cc1ncc(-c2nnc(C(F)F)o2)cc1F [Compound 71, 3-[[5-[5-(difluoromethyl)-1,3,4-oxadiazol-2-yl]-3-fluoro-2-pyridyl]methyl]-5-phenyl-6H-1,3,4-oxadiazin-2-one]
